Experiments:
[1] = test system: Neutrophil elastase activity in U937 cells; assay: Neutrophil elastase activity in U937 cytosolic lysate after incubation with test compound; type: cell-based; conditions: Homo sapiens, U-937, U937 cells incubated 48 hours with compound, read-out: Reduction of NE-activity in U937 cells IC50
Protocol: Determination of Neutrophil Elastase Activity in U937 Cytosolic Lysate Preparation after Incubation with Test Compound
Optiplate 384F were purchased from PerkinElmer (Prod. No. #6007270). 24well Nunclon cell culture plates (No. 142475) and 96well plates (No. 267245) were from Nunc. Dimethylsulfoxid (DMSO) was from Sigma (Prod. No. D8418). Nonidet-P40 (NP40) was from USBiological (Prod. No. N3500)
Substrate, specific for Neutrophil elastase, was from Bachem (MeOSuc-Ala-Ala-Pro-Val-AMC; Prod. No. I-1270).
Human neutrophil elastase was from Calbiochem (Prod. No. 324681)
Tris-buffer (100 mM Tris; 1M NaCL; pH 7.5)
Tris-buffer+HSA 0.1%; Human Serum Albumin from Calbiochem (Cat#. 126658)
Serine-protease buffer (20 mM Tris; 100 mM NaCL; pH 7.5)+0.1% HSA
Serine protease lysis buffer: 20 mM Tris-HCL; 100 mM NaCl pH 7.5; +0.2% Nonidet-P40;
PBS: phosphate buffered saline, without Ca and Mg, from Gibco
U937 from ECACC (Cat. No. 85011440) cultured in suspension at 37° C. and 5% CO2.
Cell density: 0.2-1 Mio. Cells/ml.
Medium: RPMI1640 GlutaMAX (No. 61870) with 10% FCS from Gibco
Cell Seeding and Treatment:
Compounds in 100% DMSO were diluted in Medium (—FCS) with 10% DMSO and further diluted according to the experiment planned.
20 μl of the compound solution was transferred in the respective wells of the 24 well plate and diluted with 2 ml cell suspension/well containing […] (final concentration of DMSO=0.1%). Compound dilution factor=100
Compounds (up to 7 concentrations) were tested in triplicates with 3 wells for the DMSO 0.1% control, incubatet for 48 hours without medium change at 37° C., 5% CO2 and 95% relative humidity.
Cell Harvesting and Cell Lysate:
Transfer the cell suspension in 2.2 ml Eppendorf cups. Separate cells from medium by centrifugation (400×g; 5 min; RT); discard the supernatant. Resuspend in 1 ml PBS; centrifugation (400×g; 5 min; RT); wash cells twice with PBS. Add 100 μl Serin lysis buffer (ice cold) to the cell pellet; resuspend the pellet and store on ice for 15 minutes. Remove debris by centrifugation at 15000×g for 10 min at 4° C. Transfer 80-100 μl lysate supernatant in 96well plate and store immediately at −80° C.
Neutrophil Elastase Activity Assay:
Frozen lysates were thawn at 37° C. for 10 minutes and stored on ice. Protein content was determined with Bradford protein assay. Lysates were diluted to 0.2-0.5 mg/ml protein in serine protease buffer+HSA.
Standard: NE ([…] stocksolution in Tris-buffer; stored at −80° C.) was diluted in Tris-buffer+HSA to 750 ng/ml, and further serially diluted 1:2 for the standard curve.
Buffer, blank, standard and lysate samples were transferred into 384 well plate
Blank: 5 μl Tris-buffer+10 μl Tris-buffer+HSA+5 μl Substrate
Standard: 5 μl Tris-buffer+10 μl NE (diff.conc.)+5 μl Substrate
Lysate: 5 μl Tris-buffer+10 μl Lysat+5 μl Substrate
The increase in fluorescence (Ex360 nm/Em 460 nm) is determined over 30 minutes with a Molecular Device Spectramax M5 Fluorescence Reader. Kinetic Reduction (Vmax units/sec); 4 vmax points. The amount of neutrophil elastase (ng/ml) is calculated using the standard curve and the Spectramax software. The result is interpolated to ng/mg lysate protein using excel formula functions. Percent inhibition in the compound-treated lysate samples is calculated relative to the DMSO-treated control-sample (100−(compound-sample*100)/control-sample)
IC50 is calculated using Graphpad Prism; nonlinear fitting (log(inhibitor) vs. response—Variable slope).

[2] = Metabolic stability with human liver microsomes; type: in vitro ADME; conditions: pH 7.6; pooled human liver microsomes, 37° C., 1 μM test compound, 1 mg/ml protein, NADPH; read-out: In vitro stability in human liver microsome incubations t½
Protocol: Determination of Metabolic Stability with Human Liver Microsomes
The metabolic degradation of the test compound is assayed at 37° C. with pooled human liver microsomes. The final incubation volume of 100 μl per time point contains TRIS buffer pH 7.6 (0.1 M), magnesium chloride (5 mM), microsomal protein (1 mg/ml) and the test compound at a final concentration of 1 μM. Following a short preincubation period at 37° C., the reactions are initiated by addition of beta-nicotinamide adenine dinucleotide phosphate, reduced form (NADPH, 1 mM) and terminated by transferring an aliquot into acetonitrile after different time points. Additionally, the NADPH-independent degradation is monitored in incubations without NADPH, terminated at the last time point. The [%] remaining test compound after NADPH independent incubation is reflected by the parameter c(control) (metabolic stability). The quenched incubations are pelleted by centrifugation (10,000 g, 5 min). An aliquot of the supernatant is assayed by LC-MS/MS for the amount of parent compound.
The half-life (t½ INVITRO) is determined by the slope of the semilogarithmic plot of the concentration-time profile. The intrinsic clearance (CL_[…]) is calculated by considering the amount of protein in the incubation: CL_[…][μl/min/mg protein]=(ln 2/(half-life[min]*protein content[mg/ml]))*1,000.

recombinant human DPPI = recombinant human DPPI (Homo sapiens (Human), UniProt P53634); assay: Inhibition of Human DPPI (Cathepsin C); type: biochemical; conditions: substrate Gly-Arg-AMC, 30 min room temperature
Chain of recombinant human DPPI (P53634 231-394): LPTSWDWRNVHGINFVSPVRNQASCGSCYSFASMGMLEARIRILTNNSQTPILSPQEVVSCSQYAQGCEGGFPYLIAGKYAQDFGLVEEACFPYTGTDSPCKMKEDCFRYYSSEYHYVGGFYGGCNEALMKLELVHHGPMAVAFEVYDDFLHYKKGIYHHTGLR
Chain of recombinant human DPPI (P53634 395-463): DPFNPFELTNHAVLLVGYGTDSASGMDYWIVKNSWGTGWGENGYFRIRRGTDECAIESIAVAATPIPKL
Chain of recombinant human DPPI (P53634 25-134): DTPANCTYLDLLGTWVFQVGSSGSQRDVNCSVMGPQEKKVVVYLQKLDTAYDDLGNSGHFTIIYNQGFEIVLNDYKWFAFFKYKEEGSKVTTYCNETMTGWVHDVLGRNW
From the text: Inhibition of Human DPPI (Cathepsin C)
Materials: Microtiterplates (Optiplate-384 F) were purchased from PerkinElmer (Prod. No. 6007270). The substrate Gly-Arg-AMC was from Biotrend (Prod.-No. 808756 Custom peptide). Bovine serum albumin (BSA; Prod. No. A3059) and Dithiothreitol (DTT; Prod. No D0632) were from Sigma. TagZyme buffer was from Riedel-de-Haen (Prod.-No. 04269), NaCl was from Merck (Prod.-No. 1.06404.1000) and morpholinoethane sulfonic acid (MES), was from Serva (Prod.-No. 29834). The DPP1 inhibitor Gly-Phe-DMK was purchased from MP Biomedicals (Prod.-No. 03DK00625). The recombinant human DPPI was purchased from Prozymex. All other materials were of highest grade commercially available.
The following buffers were used: MES buffer: 25 mM MES, 50 mM NaCl, 5 mM DTT, adjusted to pH 6.0, containing 0.1% BSA; TAGZyme Buffer: 20 mM NaH2PO4, 150 mM NaCl adjusted to pH 6.0 with HCl
The recombinant human DPPI was diluted in TAGZyme buffer to 1 U/ml (38.1 μg/ml, respectively), and then activated by mixing in a 1:2 ratio with a Cysteamine aqueous solution (2 mM) and incubating for 5 min at room temperature.
Five uL test compound (final concentration 0.1 nM to 100 μM) in aqua bidest (containing 4% DMSO, final DMSO concentration 1%) were mixed with 10 μL of DPPI in MES buffer (final concentration 0.0125 ng/μL) and incubated for 10 min. Then, 5 μL of substrate in MES buffer (final concentration 50 μM) were added. The microtiter plates were then incubated at room temperature for 30 min. Then, the reaction was stopped by adding 10 μL of Gly-Phe-DMK in MES-buffer (final concentration 1 μM). The fluorescence in the wells was determined using a Molecular Devices SpectraMax M5 Fluorescence Reader (Ex 360 nm, Em 460 nm) or an Envision Fluorescence Reader (Ex 355 nm, Em 460 nm).
Each assay microtiter plate contained wells with vehicle controls (1% DMSO in bidest+0.075% BSA) as reference for non-inhibited enzyme activity (100% Ctl; high values) and wells with inhibitor (Gly-Phe-DMK, in bidest+1% DMSO+0.075% BSA, final concentration 1 μM) as controls for background fluorescence (0% Ctl; low values).
The analysis of the data was performed by calculating the percentage of fluorescence in the presence of test compound in comparison to the fluorescence of the vehicle control after subtracting the background fluorescence using the following formula: (RFU(sample)−RFU(background))*100/(RFU(control)−RFU(background))
Data from these calculations were used to generate IC50 values for inhibition of DPPI, respectively.

[3] = molecular target: recombinant human Cathepsin K (Homo sapiens (Human), UniProt P43235); assay: Inhibition of Human Cathepsin K; type: biochemical; conditions: substrate Z-Gly-Pro-Arg-AMC, 60 min room temperature
Chain of recombinant human Cathepsin K (P43235 115-329): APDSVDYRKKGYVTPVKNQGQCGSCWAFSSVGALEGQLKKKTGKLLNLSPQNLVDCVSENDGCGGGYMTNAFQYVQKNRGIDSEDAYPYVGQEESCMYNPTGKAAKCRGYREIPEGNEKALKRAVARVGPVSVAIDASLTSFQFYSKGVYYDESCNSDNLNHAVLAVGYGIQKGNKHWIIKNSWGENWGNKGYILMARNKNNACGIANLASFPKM
From the text: Inhibition of Human Cathepsin K Materials: Microtiterplates (Optiplate-384 F were purchased from PerkinElmer (Prod. No. 6007270). The substrate Z-Gly-Pro-Arg-AMC was from Biomol (Prod.-No. P-142). L-Cysteine (Prod. No. 168149) was from Sigma. Sodium actetate was from Merck (Prod.-No. 6268.0250), EDTA was from Fluka (Prod.-No. 03680). The inhibitor E-64 was purchased from Sigma (Prod.-No. E3132). The recombinant human Cathepsin K proenzyme was purchased from Biomol (Prod. No. SE-367). All other materials were of highest grade commercially available.
The following buffers were used: Activation buffer: 32.5 mM sodium acetate, adjusted to pH 3.5 with HCl; Assay buffer: 150 mM sodium acetate, 4 mM EDTA, 20 mM L-Cysteine, adjusted to pH 5.5 with HCl,
To activate the proenzyme, 5 μl procathepsin K were mixed with 1 ul activation buffer, and incubated at room temperature for 30 min.
5 μL test compound (final concentration 0.1 nM to 100 μM) in aqua bidest (containing 4% DMSO, final DMSO concentration 1%) were mixed with 10 uL of Cathepsin K in assay buffer (final concentration 2 ng/μL) and incubated for 10 min. Then 5 μL of substrate in assay buffer (final concentration 12.5 μM) were added. The plates were then incubated at room temperature for 60 min. Then, the reaction was stopped by adding 10 μL of E64 in assay buffer (final concentration 1 μM). The fluorescence in the wells was determined using a Molecular Devices SpectraMax M5 Fluorescence Reader (Ex 360 nm, Em 460 nm).
Each assay microtiter plate contains wells with vehicle controls (1% DMSO in bidest) as reference for non-inhibited enzyme activity (100% Ctl; high values) and wells with inhibitor (E64 in bidest+1% DMSO, final concentration 1 μM) as controls for background fluorescence (0% Ctl; low values). The analysis of the data was performed by calculating the percentage of fluorescence in the presence of test compound in comparison to the fluorescence of the vehicle control after subtracting the background fluorescence: (RFU(sample)−RFU(background))*100/(RFU(control)−RFU(background))
Data from these calculations were used to generate IC50 values for inhibition of Cathepsin K, respectively.

IC50 [1] | half-life at 1 μM [2] | IC50 (recombinant human DPPI) | IC50 [3] | SMILES
64 nM | > 130 min |  |  | CS(=O)(=O)c1cc(-c2ccc(C[C@@H](C#N)NC(=O)C34CCC(CC3)CN4)c(F)c2)ccc1C#N [Example 1]
 |  | 650 nM |  | CS(=O)(=O)c1cc(-c2ccc(C[C@@H](C#N)NC(=O)[C@]34CC[C@@H](CN3)C4)cc2)ccc1C#N [Example 14]
 |  | 202 nM |  | CS(=O)(=O)c1cc(-c2ccc(C[C@@H](C#N)NC(=O)[C@@]34CCO[C@@H](CN3)C4)cc2)ccc1C#N [Example 6]
 |  | 38.1 nM |  | CN1Cc2ccc(-c3ccc(C[C@@H](C#N)NC(=O)C45CCC(CC4)CN5)c(F)c3)cc2C1 [Example 19]
 | 25 min | 6.7 nM |  | CN(C)S(=O)(=O)c1cccc(-c2ccc(C[C@@H](C#N)NC(=O)C34CCC(CC3)CN4)c(F)c2)c1 [Example 30]
 |  | 283 nM |  | CS(=O)(=O)c1cc(-c2ccc(C[C@@H](C#N)NC(=O)[C@@]34CC[C@H](CN3)C4)cc2)ccc1C#N [Example 10]
114 nM | > 130 min | 11.2 nM |  | N#C[C@H](Cc1ccc(-c2cccc(C(N)=O)c2)cc1F)NC(=O)C12CCC(CC1)CN2 [Example 24]
 |  | 50.3 nM | > 30 µM | CN1C(=O)Cc2ccc(-c3ccc(C[C@@H](C#N)NC(=O)[C@@]45CCO[C@@H](CN4)C5)cc3)cc21 [Example 5]
 |  | 428 nM |  | CN1C(=O)Cc2ccc(-c3ccc(C[C@@H](C#N)NC(=O)[C@]45CCC[C@@H](CN4)C5)cc3)cc21 [Example 12]
 |  | 204 nM |  | CN1C(=O)Cc2ccc(-c3ccc(C[C@@H](C#N)NC(=O)[C@]45CC[C@@H](CN4)C5)cc3)cc21 [Example 7]
 |  | 40.7 nM |  | CN1C(=O)C(C)(C)c2ccc(-c3ccc(C[C@@H](C#N)NC(=O)C45CCC(CC4)CN5)c(F)c3)cc21 [Example 25]
 |  | 221 nM |  | CN1C(=O)Cc2ccc(-c3ccc(C[C@@H](C#N)NC(=O)[C@@]45CC[C@H](CN4)C5)cc3)cc21 [Example 8]
58 nM | > 130 min | 20.2 nM |  | N#C[C@H](Cc1ccc(-c2cnn(CC3CCOCC3)c2)cc1F)NC(=O)C12CCC(CC1)CN2 [Example 29]
 |  | 1220 nM |  | CS(=O)(=O)c1cc(-c2ccc(C[C@@H](C#N)NC(=O)[C@]34CCC[C@@H](CN3)C4)cc2)ccc1C#N [Example 16]
74 nM | > 130 min | 15 nM |  | CS(=O)(=O)c1ccc(-c2ccc(C[C@@H](C#N)NC(=O)C34CCC(CC3)CN4)c(F)c2)cc1C#N [Example 18]
 |  | 228 nM |  | CN1C(=O)Cc2ccc(-c3ccc(C[C@@H](C#N)NC(=O)C45CCOC(CCN4)C5)cc3)cc21 (stereo partly drawn) [Example 9]

SMILES | IC50 [1] | half-life at 1 μM [2] | IC50 (recombinant human DPPI) | IC50 [3]
N#Cc1ccc(-c2ccc(C[C@@H](C#N)NC(=O)C34CCC(CC3)N4)cc2)cc1F [Example 11] |  | > 130 min | 284 nM | 

Source: patent US8889708B2 (Boehringer Ingelheim International GmbH, priority 2013, dated 2014)
